In PubChem BioAssay (NCI):
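Five compound concentrations were applied to cells in 96-well plates for 48 hours; endpoints were derived by simple linear interpolation of the resulting dose-response curve. The concentration for 50% growth inhibition is given as GI50. At the TGI there is no net growth.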 Where a SMILES comes first, the peptide text is derived from it.

Experiments:
Experiment in all cases: NCI-60 cell line screen, 48 h
CAKI-1 renal = system: CAKI-1 renal
HS 578T breast = system: HS 578T breast
M14 melanoma = system: M14 melanoma
NCI-H226 lung = system: NCI-H226 lung
NCI-H460 lung = system: NCI-H460 lung
OVCAR-4 ovarian = system: OVCAR-4 ovarian
RPMI-8226 leukemia = system: RPMI-8226 leukemia
SK-MEL-5 melanoma = system: SK-MEL-5 melanoma
SN12C renal = system: SN12C renal
UO-31 renal = system: UO-31 renal

Compound	TGI (CAKI-1 renal) [µM]	TGI (HS 578T breast) [µM]	TGI (M14 melanoma) [µM]	TGI (NCI-H226 lung) [µM]	TGI (NCI-H460 lung) [µM]	TGI (OVCAR-4 ovarian) [µM]	TGI (RPMI-8226 leukemia) [µM]	TGI (SK-MEL-5 melanoma) [µM]	TGI (SN12C renal) [µM]	TGI (UO-31 renal) [µM]	GI50 (CAKI-1 renal) [µM]	GI50 (HS 578T breast) [µM]	GI50 (NCI-H226 lung) [µM]	GI50 (NCI-H460 lung) [µM]	GI50 (OVCAR-4 ovarian) [µM]	GI50 (RPMI-8226 leukemia) [µM]	GI50 (SK-MEL-5 melanoma) [µM]	GI50 (SN12C renal) [µM]	GI50 (UO-31 renal) [µM]
O=S(=O)(O)c1cc(N=[N+]([O-])c2cc(S(=O)(=O)O)c3ccccc3c2)cc2ccccc12	44.4	> 100	> 100	> 100	> 100	38.2	> 100	32.8	53.8	50.2									
Cc1ccccc1NC(=O)CC(=O)N1N=C(N2c3ccccc3Sc3ccccc32)CC1c1ccccc1 (stereo not given)	> 100		> 100	> 100	> 100	> 100	> 100	> 100	> 100	> 100									
Nc1cc(-c2ccc(Cl)cc2)nn1-c1nc2ccccc2nc1-c1ccccc1	> 100	> 100	> 100	> 100	> 100	> 100	> 100	> 100	> 100										
COc1cc2c(cc1OCCCCCCCCN1C(=O)c3cccc4cccc(c34)C1=O)N=C[C@@H]1CCCN1C2=O	52.6	> 100	> 100	46.8	72	7.41	8.53	25.4	63.9	> 100									
N#Cc1c(N)nc2c(c1-c1ccc(Br)cc1)CSc1ccccc1-2	68	> 100	> 100	85.6	> 100	> 100	61.1	> 100	> 100	> 100									
CCC(C)C(NC(=O)C1CCCN1C(=O)C(CC(C)C)NC(=O)C(CC(C)C)NC(=O)C(N)CC(C)C)C(=O)NC(C(=O)NCC(=O)NC(CC(N)=O)C(=O)NC(CC(C)C)C(=O)NC(CC(C)C)C(=O)NC(CC(C)C)C(N)=O)C(C)C (stereo not given) (H-LLLPIVGNLLL-NH2; configuration not given here)	> 50	> 50	> 50	> 50		> 50	> 50	> 50	> 50	> 50									
O=C1CC2(CCC(O)(c3cccs3)C(C(=O)c3cccs3)C2)C(=O)c2ccccc2N1 (stereo not given)	> 100	> 100	> 100	> 100	46.6			> 100	> 100	> 100									
C1=CC(=[N+]2N=C(c3ccccc3)CC2c2ccccc2)C=CC1=C1SC(c2ccccc2)(c2ccccc2)c2ccccc21 (stereo not given)		> 100	> 100	> 100	> 100			> 100	> 100	> 100									
Cc1cc(=O)[nH]c(/N=C(\N)Nc2ccc(Cl)cc2)n1	> 100	> 100	> 100	> 100	> 100		> 100	> 100	> 100	> 100									
C/C(N=Nc1nc2ccccc2[nH]1)=C1/C=CC=CN1O	> 100	> 100	> 100	> 100	> 100	> 100	> 100	> 100	> 100	> 100									
CCCCCOC(=O)c1cc2cc(CCl)ccc2oc1=O	6.3	> 42.8	34.8	38	34.9	18.6	> 80.1	13.4	28.1	11.1									
O=C1c2ccccc2C(C2c3ccccc3C(=O)c3cc(Br)ccc32)c2ccc(Br)cc21 (stereo not given)	> 100	> 100	> 100	> 100		> 100	> 100	> 100	> 100	> 100									
COC(CN(C=O)[C@@H](c1ccc(Cl)cc1)c1cc2ccccc2o1)OC	34.7	27.6	37.1	34	33.3	40	35.3	28.9	31.1	31.2									
NC(=S)N1N=C(c2ccccc2O)CC1c1ccccc1 (stereo not given)	> 100	72.4	24.5	53.8	35.6	67.1	39.3	23.1	45.3	53.6									
Nc1ccc(-c2nc3cc(F)ccc3s2)cc1CO	> 100	> 100	> 100	0.409	> 100	> 100	> 100	> 100	> 100	> 100									
CC(=O)c1ccc2c(c1)N(CCCN1CCN(CCO)CC1)c1ccccc1C2	26.9	31.2	28.3	30.9	31	30.2	30.1	25.6	31.2	38.9									
CCCSc1ccc2[nH]c(N3C(=O)/C(=C/c4cc(OC)c(OC)c(OC)c4)N=C3c3ccccc3)cc2c1	> 37.5	> 37.5	> 30.8	> 37.5	> 37.5	> 37.5	27.1	19	> 37.5	> 37.5									
CSCCC(NC(=O)OCc1ccccc1)P(=O)(O)c1ccccc1 (stereo not given)	> 100	> 100	> 100	> 100	> 100	> 100	> 100	> 100	> 100	> 100									
Nc1ccc(Oc2ccc(C34CC5CC(C3)CC(c3ccc(Oc6ccc(N)cc6)cc3)(C5)C4)cc2)cc1	46.3	> 62.8	23.5	75.2	22.6	51.2	> 100	26.2	> 55.2	> 53.4									
O=C(O)C(O)C(O)C(O)C(=O)CO (stereo not given)	> 100	> 100	> 100	> 100	> 100	> 100	> 100	> 100	> 100	> 100									
CC(C)(C)[Si](C)(C)OCC1OC(n2cnc3c(N)ncnc32)CC1OS(C)(=O)=O (stereo not given)	> 100		> 100	> 100	> 100	> 100	> 100		> 100	> 100									
CCCN1C(=O)CSC1=Nc1ccc2cc3ccc(N=C4SCC(=O)N4CCC)cc3nc2c1	> 100	> 100		> 100	> 100	> 100	> 100	> 100	> 100	> 100	> 100	35.8	16.5	66.3	45.8	7.4	49	> 100	41.1
COc1ccc(C2c3cc4c(cc3OC(O)(CO)C2C(=O)O)OCO4)cc1 (stereo not given) (tested in a mixture with another compound)			29.1	47.7	36.3	> 100	49.5	39.5	54.1	> 100									
Cc1cnoc1NS(=O)(=O)c1ccc(Nc2nnc(/C=C/c3c(O)ccc4ccccc34)c(=O)n2N)cc1	88.9	> 100	75.7			> 100	71.6		95.3	> 100									
CC(C)C1OC(=O)/C=C/C=C/C=C/C=C/C=C/CC(O)C(C)C(O)CC(O)CC(O)CC(O)CC(O)CC(O)CC(O)/C=C/C1C (stereo not given)		> 100	> 100		> 100	> 100	> 100			> 100									
COC(=S)OC1CC(n2cnc3c(N)ncnc32)OC1CO[Si](C)(C)C(C)(C)C (stereo not given)			43.3	59.2	48.1	44	> 100		48.6	40.8									
COc1cc2c(cc1C)NC(=O)/C2=C/c1c(Cl)n(-c2ccccc2)c2ccccc12	> 100	> 100	63.1		30.4		52.8	22.3	23.6	> 100									
CCOC(=O)C(=O)NCCCN1CCOCC1	> 100		> 100	> 100	> 100	> 100		> 100	> 100	> 100									
